# Patent publication US10287328B2, “Treatment of diabetes, toll-like receptor 4 modulators and methods for using the same” (KeMyth Biotech Co., Ltd., priority 2016, dated 2019)
# Where a SMILES comes first, the peptide text is derived from it.
# Experiments:
# HUVECs [1] = assay type: cell-based, human; settings: for toxicity to HUVECs (FIG. 15): MTS assay, 1, 10 or 100 nM, statement for high concentration (100 nM)
# Protocol: Cell viability was detected by a methanethiosulfonate (MTS) assay. In brief, 2×10^4 HUVECs were seeded to a 48-well plates in 100 μl endothelial cell medium (ECM, ScienCell Research Laboratory, Cat. 1001, USA) per well and incubated for 24 hrs. The media was removed and the cells were then incubated with media having 2% fetal bovine serum (FBS), in the absence or presence of various peptides, such as PLY, PLY123, PLY4, C70PLY4 or N35PLY4, at a concentration of 1, 10 or 100 nM. After incubation for 18 hours, the media was removed and 20 μl MTS reagents (20%) were added to each well in the final volume of 100 μl and placed in incubator for 1 hours. The optical density was measured at 490 nm using a plate reader.
# TLR4 = assay: LPS-induced PMN transendothelial migration, PMNs from wild type C3H/HeN mice; assay type: cell-based; settings: for LPS induced PMN migration (FIGS. 11-12): WT mice model
# Protocol: (§1) To obtain mice neutrophils from TLR4-deficient [TLR4(−/−)] C3H/HeJ mice and wild type C3H/HeN mice, inflammation was induced by 0.1 ml of uric acid solution into the peritoneal cavity of the mouse. The uric acid solution (noncrystalline form) was prepared by mixing with saline (10% [wt/vol]) and sonicated for 10 min. Immediately before inoculation, the milky white precipitated uric acid solution was shaken vigorously. Peritoneal exudate cells were harvested 4, 18, or 24 h after injection by two lavages of the peritoneal cavity with 5 ml of cold phosphate-buffered saline (PBS; total volume, 10 ml). Uric acid-induced peritoneal cells (UAPMN) were washed by centrifugation at 200×g for 10 min at 4° C. Followed by hypotonic lysis to eliminate red blood cells, centrifugation and an additional wash were performed. The cells were then resuspended in Krebs-Ringer phosphate buffer (KRG; pH 7.3). The numbers and populations of peritoneal exudate cells were determined by staining the nuclei with Turk reagent and by cytospin centrifugation followed by May-Grünwald-Giemsa staining, respectively. Uric acid injection into the peritoneal cavity gave a yield of 1 to 2×10^7 cells/mouse depending on time of incubation (4 hr). The levels of purity of the uric acid-induced PMN were 95% after 4 h postinjection. Viability of the isolated neutrophils exceeded 95% as determined by trypan blue exclusion. The PMN from TLR4(−/−) C3H/HeJ mice and wild type C3H/HeN mice were then used for PMN transmigration Assay.
# Neutrophils from human were isolated blood that was drawn in a syringe containing preservative-free heparin (20 U/ml final), and mixed with an equal volume of PBS containing 3% dextran and then incubated for 20 min at room temperature. The leukocyte-rich plasma (upper layer) was collected and pellet cells was obtained from the plasma by centrifuge and resuspended in 0.9% NaCl. Layer 10 ml Ficoll-Hypaque solution beneath the cell suspension. After centrifuge 1500×g for 20 min, aspirate the Ficoll-Hypaque layer, leaving the neutrophil/RBC pellet. Cells were subjected to hypotonic lysis by resuspending each neutrophil/RBC pellet in cold 0.2% NaCl for 30 sec. At the end of this period, restore isotonicity by adding ice-cold 1.6% NaCl. After centrifuge, resuspend cells in ice-cold PBS/glucose buffer. Neutrophils from mice were isolated from the peritoneum as previously described. See, e.g., Rabes et al., Curr Top Microbiol Immunol 397:215-227 (2016). The cell concentration was adjusted to […]. The viability of the isolated neutrophils exceeded 95%, as determined by Trypan blue exclusion.
# Transendothelial migration was performed by using a Transwell system. Transwell filters were pre-seeded with HUVEC monolayers for 24 hrs and transferred to clean 24-well plates. HUVECs were washed twice with DPBS, 500 μl of ECM was added to the Transwell filter compartment and 10^6 neutrophils were then added in upper chamber. Transendothelial migration was stimulated by addition of LPS to the lower chamber to a final concentration of 1 μg/ml. Cells were incubated with the endothelial cells for 1 h at 37° C. At the conclusion of the incubation, migrated cells were collected from the lower chamber and counted in a hemacytometer in triplicate. Percent PMN transmigration was calculated by dividing the number of PMN recovered from the lower chamber by the number of PMN initially added.
# PMN transendothelial migration plays an important role in early stage of atherogenesis. […].
# [2] = system: PMNs isolated from TLR4(−/−) mice C3H/HeJ; assay: LPS-induced PMN transendothelial migration, PMNs from TLR4(-/-) C3H/HeJ mice; assay type: cell-based; settings: LPS 1 μg/ml, HUVEC monolayer Transwell
# Protocol: as §1, with “Followed by hypotonic lysis to eliminate red blood cells, centrifugation and an additional wash were performed. The cells were then resuspended in Krebs-Ringer phosphate buffer (KRG; pH 7.3).” left out, “Uric acid injection into the peritoneal cavity gave a yield of 1 to 2×10^7 cells/mouse depending on time of incubation (4 hr). The levels of purity of the uric acid-induced PMN were 95% after 4 h postinjection.” left out, “The PMN from TLR4(−/−) C3H/HeJ mice and wild type C3H/HeN mice were then used for PMN transmigration Assay.” left out
# Neutrophils from human were isolated blood that was drawn in a syringe containing preservative-free heparin (20 U/ml final), and mixed with an equal volume of PBS containing 3% dextran and then incubated for 20 min at room temperature. […] The viability of the isolated neutrophils exceeded 95%, as determined by Trypan blue exclusion. […]
# recombinant TLR4 protein = recombinant TLR4 protein (Homo sapiens, UniProt O00206); assay: In vitro protein binding assay for MD2 and TLR4 (ELISA); settings: TLR4 2 μg/mL coated, MD2 133.3 to 0.065 nM; read-out: Kd, binding affinity to the TLR4 protein
# Protocol: The recombinant TLR4 protein was diluted in phosphate buffer saline (PBS) (2 μg/mL) and immobilized on a 96-well (100 ng/well) enzyme-linked immunosorbent assay (ELISA) plate by incubation at 37° C. for 2 h. The wells were washed three times with PBS, followed by blocking with the addition of 300 μL 5% bovine serum albumin (BSA) in PBS at ambient temperature overnight. Then, the plate was washed three times with PBST (PBS with 0.05% Tween 20 solution) before the addition of the recombinant MD2 protein solutions at various concentrations (2-fold serial dilution from 133.3 to 0.065 nM). The ligands (MD2) and TLR4 proteins were incubated at 37° C. for 2 h, and the plate was then washed three times with PBST, followed by the addition of 100 μL anti-MD2 antibodies diluted in 1% BSA (1:1000). After incubation at ambient temperature for 1 h, the plate was washed with PBST three times, followed by the addition of 100 μL anti-mouse IgG-HRP antibodies diluted in 1% BSA (1:2000). After incubation at ambient temperature for 1 h, the plate was washed with PBST three times, followed by the addition of 100 μL of the HRP substrate (i.e. 3,3′,5,5′-tetramethylbenzidine, TMB) to each well. […] The optical density (OD450) in each well was determined using an ELISA plate reader. […]
# MD2/TLR4 interaction = MD2/TLR4 interaction (Homo sapiens, UniProt O00206); assay: In vitro protein competition binding assay for MD2/TLR4 interaction; settings: MD2 50 nM, peptide 50 μM to 3.05 nM
# Protocol: The recombinant TLR4 protein was diluted in PBS (2 μg/mL) and immobilized on a 96-well (100 ng/well) ELISA plate by incubation at 37° C. for 2 h. The wells were washed three times with PBS, followed by blocking with the addition of 300 μL 5% BSA in PBS at ambient temperature overnight. Then, the plate was rewashed three times with PBST before performed competition binding assay. The binding of MD2 (50 nM) to TLR4 was competed by adding various amounts (2-fold serial dilution from 50 μM to 3.05 nM) of C70PLY4, N35PLY4, or M50PLY4 peptide, and the residual binding was examined using anti-MD2 and anti-mouse-IgG-HRP antibodies diluted in 1% BSA as described in herein.
# HUVECs [3] = assay: Cell apoptosis, TUNEL assay in HUVECs; assay type: cell-based, human; settings: positive control of TUNEL and caspase-3 assays
# Protocol: Cell apoptosis was detected by using commercial terminal deoxynucleotidyl transferase-dUTP nick end labeling (TUNEL) and caspase-3 activity kits, i.e., Apo-BrdU in Situ DNA Fragmentation Assay Kit (BioVision) and NucView™ 488 Caspase-3 Enzyme Substrate (Biotium). In brief, after incubation with M199 media in the presence or absence of […] various PLY peptides, at 37° C., 5% CO2 for 1 hour, HUVECs were washed with PBS and fixed with fixation buffer on ice for 20 min. Cells were then soaked in 70% alcohol for 1 hr. After 2 times of wash by washing buffer, cells were incubated in DNA labeling solution for 60 min at 37° C. Cells were then treated with rinse buffer and incubated with antibody buffer for 30 min at room temperature. The cell nuclei were stained with propidium iodide for 30 min. Samples were observed by fluorescent microscopeand photographed charge-coupled device (CCD) camera.
# [4] = system: neointima formation of aorta; assay: Neointima formation of aorta (HE stain) in STZ-treated HFD-fed rats; assay type: in vivo
# Protocol: The ascending part of aorta were taken from mice, including control health mice and HFD induced diabetic mice, with and without treatment of C70PLY4, and kept in 10% formalin buffered for 24 h. The specimens were routinely embedded in paraffin blocks and cut in transversal sections (3 μm). The slides were stained with hematoxylin and eosin. The specimens were analyzed with light microscope.
# The present study determined if C70PLY4 attenuates the status of atherosclerosis in HFD-fed rats.
# MD2/TLR4 interaction, sequence (O00206 24-631): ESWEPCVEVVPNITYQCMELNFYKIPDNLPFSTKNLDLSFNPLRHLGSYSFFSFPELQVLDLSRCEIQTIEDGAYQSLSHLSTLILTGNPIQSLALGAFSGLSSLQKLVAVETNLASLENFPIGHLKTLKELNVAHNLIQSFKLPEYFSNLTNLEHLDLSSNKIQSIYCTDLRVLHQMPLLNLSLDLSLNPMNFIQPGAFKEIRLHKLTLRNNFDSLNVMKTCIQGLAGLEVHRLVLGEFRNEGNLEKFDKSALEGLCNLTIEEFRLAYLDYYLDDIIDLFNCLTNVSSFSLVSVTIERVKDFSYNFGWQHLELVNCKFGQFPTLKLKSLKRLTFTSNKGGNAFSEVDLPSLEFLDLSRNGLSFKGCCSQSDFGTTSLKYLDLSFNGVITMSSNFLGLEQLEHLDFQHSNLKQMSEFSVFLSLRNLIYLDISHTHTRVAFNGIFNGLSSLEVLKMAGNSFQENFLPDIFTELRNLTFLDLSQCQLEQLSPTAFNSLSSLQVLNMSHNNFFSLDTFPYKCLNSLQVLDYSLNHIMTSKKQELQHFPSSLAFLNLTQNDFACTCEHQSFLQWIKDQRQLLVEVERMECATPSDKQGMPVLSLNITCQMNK
# recombinant TLR4 protein, sequence (O00206 24-839): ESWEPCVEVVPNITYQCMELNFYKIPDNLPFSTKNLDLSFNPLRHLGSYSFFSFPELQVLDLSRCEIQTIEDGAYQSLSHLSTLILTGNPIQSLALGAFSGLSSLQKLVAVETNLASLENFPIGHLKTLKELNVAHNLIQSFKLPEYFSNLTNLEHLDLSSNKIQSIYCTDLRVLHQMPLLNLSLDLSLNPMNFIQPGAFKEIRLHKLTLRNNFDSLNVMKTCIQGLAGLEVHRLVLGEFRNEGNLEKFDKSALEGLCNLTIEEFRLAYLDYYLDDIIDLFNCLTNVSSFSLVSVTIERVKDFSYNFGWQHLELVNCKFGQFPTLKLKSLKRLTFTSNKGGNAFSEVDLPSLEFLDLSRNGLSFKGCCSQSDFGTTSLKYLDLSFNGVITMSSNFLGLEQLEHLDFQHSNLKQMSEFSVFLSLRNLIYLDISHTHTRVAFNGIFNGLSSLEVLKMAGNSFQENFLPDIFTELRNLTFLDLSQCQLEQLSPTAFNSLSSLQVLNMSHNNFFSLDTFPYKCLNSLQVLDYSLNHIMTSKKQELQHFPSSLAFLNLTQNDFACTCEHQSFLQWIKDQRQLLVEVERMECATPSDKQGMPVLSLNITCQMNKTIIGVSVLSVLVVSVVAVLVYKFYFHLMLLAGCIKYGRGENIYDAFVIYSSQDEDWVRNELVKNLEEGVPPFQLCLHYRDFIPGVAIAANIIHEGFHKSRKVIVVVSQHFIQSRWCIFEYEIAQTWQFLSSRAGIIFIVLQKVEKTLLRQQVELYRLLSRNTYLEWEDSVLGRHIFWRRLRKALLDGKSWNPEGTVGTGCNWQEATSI
compound,measurement,setting,value
"full-length PLY: full length pneumococcal pneumolysin, 1-471 amino acid residues, SEQ ID NO: 1, prepared by recombinant technology [reference compound]",cells survived,"HUVECs [1]; HUVECs, 100 nM, 18 hours, MTS",30%
same,toxicity to HUVECs (FIG. 15),HUVECs [1],toxic to cells
same,"PMNs migration, WT mice model (FIG. 10)","TLR4; PMNs from C3H/HeN mice, LPS 1 μg/ml, HUVEC monolayer Transwell",did not affect the PMNs migration
same,LPS induced PMN migration (FIGS. 11-12),TLR4,enhances PMN migration induced by LPS
same,"PMNs migration, TLR4(−/−) mice model (FIG. 10)",[2],did not affect the PMNs migration
CC[C@H](C)[C@H](NC(=O)[C@H](CCCCN)NC(=O)[C@@H](NC(=O)[C@H](CO)NC(=O)[C@H](CC(C)C)NC(=O)[C@H](CC(N)=O)NC(=O)[C@H](CCCNC(=N)N)NC(=O)[C@@H](NC(=O)[C@H](CC(N)=O)NC(=O)CNC(=O)[C@H](CCCCN)NC(=O)[C@H](CC(C)C)NC(=O)[C@@H]1CCCN1C(=O)[C@@H](NC(=O)[C@H](CO)NC(=O)[C@@H](NC(=O)[C@@H](NC(=O)[C@H](Cc1ccccc1)NC(=O)[C@H](Cc1c[nH]cn1)NC(=O)[C@H](C)NC(=O)[C@@H](NC(=O)[C@H](CC(C)C)NC(=O)[C@H](CC(=O)O)NC(=O)[C@@H](N)CCC(N)=O)[C@@H](C)O)[C@@H](C)O)[C@@H](C)O)[C@@H](C)CC)C(C)C)C(C)C)C(=O)N[C@@H](CCCNC(=N)N)C(=O)N[C@@H](CCC(=O)O)C(=O)N[C@@H](CS)C(=O)N[C@H](C(=O)NCC(=O)N[C@@H](CC(C)C)C(=O)N[C@@H](C)C(=O)N[C@@H](Cc1c[nH]c2ccccc12)C(=O)N[C@@H](CCC(=O)O)C(=O)N[C@@H](Cc1c[nH]c2ccccc12)C(=O)N[C@@H](Cc1c[nH]c2ccccc12)C(N)=O)[C@@H](C)O [N35PLY4] (H-QDLTAHFTTSIPLKGNVRNLSVKIRECTGLAWEWW-NH2),toxicity to HUVECs (FIG. 15),HUVECs [1],no toxic effects
"MD2: recombinant MD2 protein, an extracellular protein associated with the extracellular domain of TLR4 protein",Kd,recombinant TLR4 protein,18.4 ± 3.9 nM
"N35PLY4m24L25K: N35PLY4 with double mutations, position 24 I to L and position 25 R to K, SEQ ID NO: 7 (QDLTAHFTTSIPLKGNVRNLSVKLKECTGLAWEWW)",LPS induced PMN migration (FIGS. 11-12),TLR4,inhibitory effects
"M50PLY4: peptide of 6th to 55th amino acid residues of C70PLY4 (407-456), lacking the N-terminal motif QDLTA, SEQ ID NO: 8 (HFTTSIPLKGNVRNLSVKIRECTGLAWEWWRTVYEKTDLPLVRKRTISIW) [reference compound]",blocking capability for MD2 and TLR4 protein interaction (in words),MD2/TLR4 interaction,no competitive capability
"CC[C@@]1(O)C(=O)OCc2c1cc1n(c2=O)Cc2cc3ccccc3nc2-1 [camptothecin, reference compound]",apoptotic cells,HUVECs [3],about 60%
N35PLY4m25K (QDLTAHFTTSIPLKGNVRNLSVKIKECTGLAWEWW),LPS induced PMN migration (FIGS. 11-12),TLR4,inhibitory effects
"CC(=O)N[C@@H](CS)C(=O)O [NAC, N-acetylcycteine, reference compound]",neointima formation of aorta induced by STZ,[4],partially improve the STZ effect on the neointima formation
